Five molecules from ChEMBL document CHEMBL1158029, “Bisabolanes from the red alga Laurencia scoparia” (J Nat Prod, 2006) can be followed below.

The source made the active and inactive calls. The rule behind the calls is not given here.

The test system of this test is Nippostrongylus brasiliensis. Put plainly: Antihelminthic activity against L4 parasitant stage of Nippostrongylus brasiliensis. The class given is functional, organism-based.

In the case of `C=C(C)C(O)CCC(=C)[C@]1(O)CC[C@](C)(Br)[C@@H](Cl)C1` (relative stereo), the outcome was inactive.
For the molecule `C[C@@H]1CC[C@]23[C@H]1CC[C@@]2(C)C[C@@](C)(O)[C@H]3C`, the result was inactive.
As for `C[C@@H]1CC[C@]23[C@H]1CC[C@@]2(C)C[C@H](C)[C@]3(C)O`, the outcome was inactive.
As for `C=C(C[C@H](O)C=C(C)C)[C@@]1(O)CC[C@](C)(Br)[C@@H](Cl)C1`, the midpoint of the response, the EC50, lay at 110 µM.
`C=C(C)C(O)CCC(=C)[C@@]1(O)CC[C@](C)(Br)[C@@H](Cl)C1` (relative stereo): the outcome was inactive.
